In patent US20240099951A1, “HAIR GROWTH STIMULANT” (ADJUVANT HOLDINGS CO., LTD., priority 2020, published 2024):

Tested on: BALB/c-nu/nu mice
Experiment: Evaluation of mitogenic activity (BrdU immunostaining of skin tissue)
Type: in vivo
Conditions: once per day for 7 days
Method: Dorsal body hair skin was collected from BALB/c-nu/nu mice (Japan SLC, Inc.; Japan) of age 7 to 8 weeks. Testing and breeding of animals complied with pertinent laws, regulations, ordinances, and guidelines, and was performed with the approval of the Experimental Ethics Review Board of the Institute of Physical and Chemical Research. The following drugs were respectively prepared. • Working Example: 3% phytosphingosine solution • Comparative Example: 60% aqueous ethanol solution A micropipette was used to apply 25 μL of the drug to the left and right dorsal regions of the BALB/c-nu/nu mice. A dryer was thereafter used to cause cool air to be directed at the location where this was applied and rapidly dry the drug. This procedure was carried out in repetitive fashion four times at each the left and right dorsal regions. This drug application procedure was carried out for seven days starting from the day following depilation. 24 hours and 48 hours prior to collection of dorsal body hair skin from BALB/c-nu/nu mice on which the drug had been applied for 7 days, a syringe (Terumo Corporation; Japan) was used to administer 0.5 mL of 10 mg/mL BrdU/physiological saline solution to the abdomen in the region of the hind legs of each mouse. Following euthanization by cervical dislocation of the BALB/c-nu/nu mice on the eighth day at the same time as when administration had been carried out, skin tissue was collected in a manner such as would not cause damage to the hair bulb. The collected skin tissue was immersed for 16 to 24 hours in SuperFix (Toyobo Co., Ltd.; Japan) fixative solution, following which this was washed four times in 1×PBS, placed in fresh 1X PBS, and stored. The necessary portion of the collected skin tissue was cut out therefrom, and a paraffin fluid exchange apparatus (Leica Microsystems GmbH; Germany) was used to fabricate a paraffin block therefrom. […] BrdU counts were measured at three locations of 100 μm^2 for the epidermal layer and the dermal layer, measurement being carried out at three sites of size on the same order for the hair follicle. […]

For `CCCCCCCCCCCCCC[C@@H](O)[C@@H](O)[C@@H](N)CO` [phytosphingosine], the “mitogenic activity (BrdU counts) as compared with the negative control and the positive control” value (3% phytosphingosine solution) was “trend toward increased mitogenic activity”, the “mitogenic activity at the basal layer of the epidermis” value (3% phytosphingosine solution) was “increase in mitogenic activity” and the “mitogenic activity at the hair follicle” value (3% phytosphingosine) was “improved”.
